Like-named read-outs stand apart in the source and are kept apart here. Starred links: 1 amine or outer side, 2 acyl side, 3 side chain; linkers in the order of their positions; H or OH if unused. Positions of bridges follow the written chain, without caps; N, C: chain ends. Non-standard residues stand in square brackets, D forms with d. Chains are numbered I, II in the order given. No end group written: not given here. ξ: configuration not given here. *: point of attachment. X1 = O=C(CCOCCOCCOCCN(CCOCCOCCOCCn1cc(CCC(=O)[*:2])nn1)CCOCCOCCOCCn1cc(CCC(=O)[*:3])nn1)[*:1]; X3 = O=C(CCc1cn(CCOCCOCCOCCN(CCOCCOCCOCCC(=O)[*:3])CCOCCOCCOCCn2cc(CCC(=O)[*:2])nn2)nn1)[*:1]; X2 = O=C(CCSCCC(=O)[*:1])N1CN(C(=O)CC[*:2])CN(C(=O)CC[*:3])C1; TATA = O=C(CC[*:1])N1CN(C(=O)CC[*:2])CN(C(=O)CC[*:3])C1; ξDip = NC(C(=O)O)C(c1ccccc1)c1ccccc1; Hyp = O=C(O)[C@@H]1C[C@@H](O)CN1; hArg = N=C(N)NCCCC[C@H](N)C(=O)O; tBuAla = CC(C)(C)C[C@H](N)C(=O)O; Cba = N[C@@H](CC1CCC1)C(=O)O; Nle = CCCC[C@H](N)C(=O)O; Pent4ynoyl = C#CCCC(=O)*; ξP = O=C(O)C1CCCN1; Mpa = O=C(O)CCS
What was measured:
CD137 = CD137 (Homo sapiens, UniProt Q07011); assay: CD137 reporter assay (Promega, Jurkat cells) in co-culture with EphA2-expressing tumor cells (A549, PC3, HT29); type: cell-based; design: host or cells: Jurkat reporter cells; conditions: for Emax (fold induction over background): CD137 reporter coculture assay with PC3 tumor cells; for EC50: EC50, CD137 reporter coculture assay with PC3 tumor cells
CD137, sequence (Q07011 24-255): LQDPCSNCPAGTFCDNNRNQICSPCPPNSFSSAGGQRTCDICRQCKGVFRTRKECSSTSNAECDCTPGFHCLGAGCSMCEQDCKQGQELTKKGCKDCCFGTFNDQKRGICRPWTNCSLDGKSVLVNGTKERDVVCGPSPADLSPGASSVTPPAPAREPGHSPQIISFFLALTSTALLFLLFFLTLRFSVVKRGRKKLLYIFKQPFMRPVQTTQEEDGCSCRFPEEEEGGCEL
Summary of the method: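 Readout is Bio-Glo luminescence after 6 h, 37° C co-culture of CD137 reporter Jurkat cells, target tumor cells (EphA2: A549, PC3, HT29; PD-L1: RKO) and titrated test articles in 1% FBS RPMI. EC50 (nM) and maximal induction come from fold change over untreated co-culture.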

MC38 tumors = assay: Anti-tumor activity of EphA2/CD137 complexes in syngeneic MC38 tumor model; type: in vivo, C57BL/6J-hCD137 mice; conditions: day 28
Method: 6-8 weeks old C57BL/6J-hCD137 female mice were inoculated in the flank with 1×10^6 syngeneic MC38 cells. When tumors reached 76 mm^3 size on average, mice were randomized to receive vehicle or BCY12491 (intraperitoneal administration). BCY12491 was administered (n=6 mice/treatment cohort) at either 5 mg/kg or 15 mg/kg either daily (QD) or every three days (Q3D). QD dosed mice received 22 doses of BCY12491 and Q3D dosed mice received 8 doses of BCY12491. Tumor growth was monitored by caliper measurements until day 73 after treatment initiation. The results of this experiment may be seen in FIG. 9 where it can be seen that the effect of BCY12491 on tumor growth becomes apparent in the first two weeks of the dosing period reducing the tumor growth and causing reduction of volumes of many of the treated tumors. By day 41, 15 out of 24 BCY12491 treated animals had completely responded to the treatment and had no palpable tumors left.
6-8 week old female C57BL/6J-hCD137 mice [B-hTNFRSF9(CD137) mice; Biocytogen] were implanted subcutaneously with 1×10^6 MC38 cells. Mice were randomized into treatment groups (n=6/cohort) when average tumor volumes reached around 76 mm^3 and were treated with daily doses of vehicle (25 mM histidine, 10% sucrose, pH7). BCY12491 treatment was conducted at two different dose levels (5 and 15 mg/kg) and two different dosing schedules (QD: daily; Q3D: every three days). Animals received either 22 QD doses or 8 Q3D doses intraperitoneally (ip). Tumor growth was monitored until tumor reached volumes over 2000 mm^3 or until 73 days after treatment initiation. After Day 73, 5 complete responder animals were re-challenged with MC38 tumor cell implantation alongside with 5 naïve C57BL/6J-hCD137 mice. Tumor growth was monitored for 20 days.
6-8 week old female C57BL/6J-hCD137 mice [B-hTNFRSF9(CD137) mice; Biocytogen] were implanted subcutaneously with 1×10^6 MC38 cells. Mice were randomized into treatment groups (n=6/cohort) when average tumor volumes reached around 92 mm^3 and were treated intravenously with Q3D doses of vehicle (25 mM histidine, 10% sucrose, pH7), 15 mg/kg of BCY12730, BCY12723 or BCY12491 (7 Q3D doses). Tumor growth was monitored for 28 days or until tumors exceeded 2000 mm^3.
6-8 week old female C57BL/6J-hCD137 mice [B-hTNFRSF9(CD137) mice; Biocytogen] were implanted subcutaneously with 1×10^6 MC38 cells. Mice were randomized into treatment groups (n=6/cohort) when average tumor volumes reached around 76 mm^3 and were treated intravenously with twice weekly (BIW) doses of vehicle (25 mM histidine, 10% sucrose, pH7), 5 mg/kg of BCY13048, BCY13050, or BCY12491 (6 BIW doses). Tumor growth was monitored for 28 days or until tumors exceeded 2000 mm^3.

human PBMCs = assay: Human PBMC co-culture cytokine secretion assay with EphA2-expressing tumor cells (MC38, HT-1080, HT29); type: cell-based; conditions: human PBMC-MC38 co-culture
Method: […] MC38 were cultured in Dulbecco's Modified Eagle Medium supplemented with 10% heat inactivated Fetal Bovine Serum (FBS), 1× Penicillin/Streptomycin, 10 mM HEPES, and 2 mM L-Glutamine (referred to as R10 medium). Frozen PBMCs from healthy human donors were thawed and washed once in room temperature PBS with benzonase, and then resuspended in RPMI supplemented with 10% heat inactivated Fetal Bovine Serum (FBS), 1× Penicillin/Streptomycin, 10 mM HEPES, and 2 mM L-Glutamine (herein referred to as R10 medium). 100 μl of PBMCs (1,000,000 PBMCs/ml) and 100 μl of tumor cells (100,000 tumor cells/ml) (Effector:Target cell ratio (E:T) 10:1) were plated in each well of a 96 well flat bottom plate for the co-culture assay. 100 ng/ml of soluble anti-CD3 mAb (clone OKT3) was added to the culture on day 0 to stimulate human PBMCs. Test, control compounds, or vehicle controls were diluted in R10 media and 50 μL was added to respective wells to bring the final volume per well to 250 μL. Plates were covered with a breathable film and incubated in a humidified chamber at 37° C. with 5% CO2 for two days. […] Briefly, the standards and samples were added to a black 96 well plate. Microparticle cocktail (provided in Luminex kit, R&D Systems) was added and shaken for 2 hours at room temperature. The plate was washed 3 times using a magnetic holder. Biotin cocktail was then added to the plate and shaken for 1 hour at RT. The plate was washed 3 times using a magnetic holder. Streptavidin cocktail was added to the plate and shaken for 30 minutes at RT. The plates were washed 3 times using a magnetic holder, resuspended in 100 μL of wash buffer, shaken for 2 minutes at RT, and read using the Luminex 2000. Raw data were analyzed using built-in Luminex software to generate standard curves and interpolate protein concentrations, all other data analyses and graphing were performed using Excel and Prism software. Data represents one study with three independent donor PBMCs tested in experimental duplicates.
Similarly, PBMCs from healthy donors were co-cultured with EphA2 expressing cancer cells (MC38 and HT-1080) at a ratio of 5:1 in presence of anti-CD3 and BCY13272. […]

[1] = Pharmacokinetics in SD rats; type: in vivo; conditions: rat, IV Inf (15 minutes); for half-life: iv, read-out: T1/2 (converted); for clearance: read-out: Clp; for Vd: read-out: Vdss
Method: Male SD Rats were dosed with each heterotandem Bicycle peptide complex formulated in 25 mM Histidine HCl, 10% sucrose pH 7 by IV bolus or IV infusion (15 minutes). Serial bleeding (about 80 μL blood/time point) was performed via submandibular or saphenous vein at each time point. All blood samples were immediately transferred into prechilled microcentrifuge tubes containing 2 μL K2-EDTA (0.5M) as anti-coagulant and placed on wet ice. Blood samples were immediately processed for plasma by centrifugation at approximately 4° C., 3000 g. The precipitant including internal standard was immediately added into the plasma, mixed well and centrifuged at 12,000 rpm, 4° C. for 10 minutes. The supernatant was transferred into pre-labeled polypropylene microcentrifuge tubes, and then quick-frozen over dry ice. The samples were stored at […] or below as needed until analysis. 7.5 μL of the supernatant samples were directly injected for LC-MS/MS analysis using an Orbitrap Q Exactive in positive ion mode to determine the concentrations of analyte. Plasma concentration versus time data were analyzed by non-compartmental approaches using the Phoenix WinNonlin 6.3 software program. C0, CI, Vdss, T½, AUC(0-last), AUC(0-inf), MRT(0-last), MRT(0-inf) and graphs of plasma concentration versus time profile were reported.

MC38 tumor tissue = assay: Immune response in MC38 tumors (nCounter transcriptional analysis, CD8 IHC); type: in vivo, C57BL/6J-hCD137 mice; conditions: Q3D x3, peptides 15 mg/kg IV, anti-CD137 2 mg/kg ip
Method: 6-8 week old female C57BL/6J-hCD137 mice [B-hTNFRSF9(CD137) mice; Biocytogen] were implanted subcutaneously with 1×10^6 MC38 cells. Mice were randomized into treatment groups when average tumor volumes reached around 240 mm^3 and were treated (n=6/treatment cohort) with vehicle (25 mM histidine, 10% sucrose, pH7) intravenously (IV), 15 mg/kg BCY12491 (EphA2: CD137 1:2 Heterotandem Complex) IV, 15 mg/kg BCY13626 (non-binding control for EphA2) IV or 2 mg/kg Anti-CD137 (urelumab analogue) intraperitoneally. All treatments were given Q3D for three doses and tumor tissues were harvested 1 hour after the last dose. Part of the tumor tissue was used for RNA isolation for transcriptional analysis and a part of the tumor tissue was used for formalin fixed paraffin embedded (FFPE) sample preparation for immunohistochemical (INC) analysis. RNA was isolated from tumor tissues using RNAeasy kit [Qiagen] and transcriptional analysis was performed using nCounter Mouse PanCancer IO 360 panel (Nanostring) from 100 ng RNA/tumor. Data was analysed using the nSolver Analysis Software (Nanostring). CD8+ tumor infiltrating cells were stained in FFPE tissue sections using anti-mouse CD8 antibody (Abcam, #ab217344) and Ventana Discovery OmniMap anti Rabbit-HRP Kit (Ventana #760 4310).

[2] = Donor 1, 72 h incubation, read-out: Donor 1 EC50 of IFNγ secretion
[3] = Donor 2, 72 h incubation, read-out: Donor 2 EC50 of IFNγ secretion
[4] = Donor 1, 48 h incubation, read-out: Donor 1 EC50 of IFNγ secretion
[5] = Donor 2, 48 h incubation, read-out: Donor 2 EC50 of IFNγ secretion

Row | Substance | complete responses (MC38 tumors; 15 mg/kg IV Q3D, 7 doses) | EC50 (human PBMCs; [2]) [nM] | EC50 (human PBMCs; [3]) [nM] | Emax (fold induction over background) (CD137) | EC50 (CD137) [nM] | EC50 (human PBMCs; [4]) [nM] | EC50 (human PBMCs; [5]) [nM] | complete responses (MC38 tumors; 5 mg/kg IV BIW, 6 doses) | half-life ([1]; male, SD, plasma) [h] | clearance ([1]; male, SD, plasma) [mL/min/kg] | Vd ([1]; male, SD, plasma) [L/kg] | further results
1 | BCY12723: EphA2:CD137 1:2; BCY9594 + 2x BCY12143; linker N-(acid-PEG3)-N-bis(PEG3-azide) (peptide 1 A[hArg]DC[Hyp]LVNPLCLHP[dD]W[hArg]C; peptide 2 Ac-C[tBuAla]EE[dK](Pent4ynoyl)PYCFADPY[Nle]C; linker I:4-I:11-I:18, II:1-II:8-II:15 via TATA; not fully specified (bridges); also: chain 2 present twice on linker, EphA2:CD137 1:2) | 2 out of 6 | 0.13 | 0.095 |  |  |  |  |  |  |  |  | Fold Improvement over BCY9173, EC50 (nM) (CD137; co-culture with PC3): 2.2 fold; Fold Improvement over Emax (CD137; co-culture with PC3, versus BCY9173): 1.8 fold
2 | I: A[hArg]DC[Hyp]LVNPLCLHP[dD]W[hArg]C-NH2 / II: [Mpa][tBuAla]PE[dK]PYCFADPY[Nle]C-NH2 / III: [tBuAla]PE[dK]PYCFADPY[Nle]C-NH2 (linker I:4-I:11-I:18, II:1-II:8-II:15 via TATA; linker I:N-II:5-III:4 via X1; linker III:N-III:7-III:14 via X2) [BCY12730] | 3 out of 6 |  |  | 61.73 | 0.25 | 0.13 | 0.19 |  |  |  |  | half-life ([1]; in vivo): 2 h; clearance ([1]; in vivo): 18 mL/min/kg; Vd ([1]; in vivo): 2.6 L/kg
3 | I: A[hArg]DC[Hyp][Cba]VN[ξP]LCLHP[dD]W[hArg]C-NH2 / II: Ac-C[tBuAla]PE[dK]PYCFADPY[Nle]CA-NH2 / III: Ac-C[tBuAla]PE[dK]PYCFADPY[Nle]CA-NH2 (linker I:4-I:11-I:18, II:1-II:8-II:15, III:1-III:8-III:15 via TATA; linker I:N-II:5-III:5 via X1) [BCY13050] |  | 0.38 | 0.19 | 42.46 | 0.09 |  |  | 3 out of 6 | 3.3 | 11 | 1.4 | 
4 | I: Ac-C[tBuAla]PE[dK]PYCFADPY[Nle]CA-NH2 / II: Ac-C[tBuAla]PE[dK]PYCFADPY[Nle]CA-NH2 / III: C[Hyp]LVNPLCL[ξDip]P[dD]WTC-NH2 (linker I:1-I:8-I:15, II:1-II:8-II:15, III:1-III:8-III:15 via TATA; linker I:5-II:5-III:N via X3) [BCY13048] |  |  |  | 48.35 | 0.09 | 0.3 | 0.24 | 5 out of 6 | 3.8 | 11 | 1.2 | 
5 | anti-CD137 antibody: Anti-CD137 (urelumab analogue) |  |  |  |  |  |  |  |  |  |  |  | CD8+ cell infiltration in tumor (IHC) (MC38 tumor tissue): Some increase in CD8+ cell infiltration; T cell score in tumor tissue (MC38 tumor tissue; vs vehicle): increased significantly; cytotoxic cell score in tumor tissue (MC38 tumor tissue; vs vehicle): increased significantly

Reference: patent US20230129258A1, “HETEROTANDEM BICYCLIC PEPTIDE COMPLEXES” (BicycleTx Limited, priority 2019, published 2023)
